Where “and” joins values, the source holds several entries; their conditions need not be identical. Equal values may be shown once. Read-outs that look alike come from different tables or passages of the source.
Legend:
Type in all cases: biochemical
[1] = molecular target: T1, FIH (Homo sapiens, UniProt Q9NWT6); test: Steady-state kinetics of FIH-catalyzed peptide/protein hydroxylation (MALDI-TOF-MS or LC-MS); details: for Km / kcat^app: 50 μM Fe(II), 1 mM L-ascorbate; for kcat^app: MALDI-TOF-MS or LC-MS; for 2OG concentration above which substrate inhibition was observed: FIH steady-state assays with the named CAD peptide
T1 construct: Full-length recombinant FIH, two- and three-consensus ankyrin repeats (2CA and 3CA) were produced as described; His6 (cleaved yes); made in house; host or cells: Escherichia coli BL21(DE3)
Method: Enzymatic assays were conducted as described ([46], [47]). Unless otherwise stated, the assay mixture typically contained 5 μM FIH, 500 μM substrate, 500 μM 2OG, 1 mM L-ascorbate, and 50 μM Fe(NH4)2(SO4)2 or 4 μM PHD2, 100 μM substrate, 300 μM 2OG, 4 mM L-ascorbate, and 50 μM Fe(NH4)2(SO4)2. For HIF-1α CODD19-mer, the background levels of methionine oxidation resulting from assay conditions were subtracted based on non-enzymatic controls ([48]).
The O2 dependence of FIH-catalyzed reactions was determined by conducting enzymatic assays in an “In vivo 500 Hypoxia Workstation” (Ruskinn) using buffers pre-equilibrated under different pO2 values for 24 h. The O2 dependence of PHD2-catalyzed reactions was determined by conducting enzymatic assays in sealed glass vials with variable N2/O2 contents ([42]). Reactions were stopped by spotting samples onto a matrix-assisted laser desorption/ionization-time of flight mass spectrometry (MALDI-TOF-MS) target plate and immediately mixing with α-cyano-4-hydroxycinnamic acid matrix. Hydroxylation levels were assessed by MALDI-TOF-MS as described ([46]).
Samples obtained from FIH kinetic assays with 2CA and 3CA were diluted to a substrate concentration of 5 μM and then analyzed using a Waters® LCT Classic mass spectrometer by electrospray ionization in positive ion mode. An Agilent HP1100 LC system was used, and samples were run through a Phenomenex® Aeris Widepore 3.6-μm XB-C8 150 × 2.1-mm column at 0.5 ml/min in a gradient of phase A (95% H2O, 5% CH3CN, 0.01% formic acid) to phase B (95% CH3CN, 5% H2O, 0.01% formic acid). The LC/MS used the following method: 0–1.5 min, 100% A and then 1.5–12 min linear gradient from 0 to 100% B, 12–14 min 100% B, and 15.0–19.0 min 100% A for re-equilibration of the column. Data were collected and analyzed using MassLynx version 4.0.

[2] = molecular target: T1, FIH; test: Stopped-flow UV-visible spectroscopy, FIH·Fe(II)·2OG·substrate + O2; details: anaerobic 0.5 mM FIH, 1 mM substrate, 5 mM 2OG, 0.4 mM Fe(II), 50 mM HEPES pH 7.5, mixed 1:1 with O2-saturated buffer at 5 °C; double exponential fit
Method: (§1) Stopped-flow UV-visible spectroscopy experiments were performed as described previously ([32], [42]). Anerobically prepared assay mixtures containing 0.5 mM apo-FIH, 1 mM substrate, 5 mM 2OG, 0.4 mM Fe(II) or 0.8 mM apo-PHD2, 1 mM substrate, 5 mM 2OG, 0.5 mM Fe(II) were rapidly mixed with O2-free/O2-saturated buffer. The reaction was observed over 1000 s using a photodiode array detector, and kinetic traces were analyzed using Origin version 8.51 software. Data were fitted with a double exponential function (y = A1 × exp(−kriset) + A2 × exp(−kfallt) + y0). The A1, A2, and y0 parameters were restricted with upper limits to match the observed amplitude/offset changes.
Kinetic traces were fitted using a double exponential function; the fitting parameters of intermediate formation and decay are summarized in Table 3.
FIGURE 10. Stopped-flow UV-visible absorbance changes upon FIH-catalyzed hydroxylation of HIF-1/2α CAD and ARD substrates. Reaction mixtures containing anaerobic 0.5 mM apo-FIH, 0.4 mM Fe(II), 5 mM 2OG, and 1 mM peptide in HEPES 50 mM (pH 7.5) were rapidly mixed with O2-saturated buffer at 5 °C in 1:1 ratio and analyzed using a photodiode array detector. The data were fitted with a double exponential function. A, decay at 500 nm (representing enzyme·substrate complex depletion) observed upon FIH-catalyzed hydroxylation of ARD substrates compared with HIF-1/2α CAD. B, formation and degradation of 310 nm species observed upon FIH-catalyzed HIF-1/2α CAD and ARD hydroxylation. C, decay at 500 nm observed upon FIH-catalyzed hydroxylation of 1CA, 2CA, and 3CA substrates.

[3] = molecular target: T2, PHD2 (Homo sapiens, UniProt Q9GZT9); test: Stopped-flow UV-visible spectroscopy, PHD2·Fe(II)·2OG·substrate + O2; details: anaerobic 0.8 mM PHD2, 1 mM peptide, 5 mM 2OG, 50 mM HEPES pH 7.5, mixed 1:1 with O2-saturated buffer at 5 °C, double exponential fit; for Stopped-flow, 520 nm (PHD2) kfall phase: traces average of triplicate
T2 construct: The catalytic domain of PHD2 (residues 181–426) was purified as described; made in house
Method: as §1, with “Anerobically prepared assay mixtures containing 0.5 mM apo-FIH, 1 mM substrate, 5 mM 2OG, 0.4 mM Fe(II) or 0.8 mM apo-PHD2, 1 mM substrate, 5 mM 2OG, 0.5 mM Fe(II) were rapidly mixed with O2-free/O2-saturated buffer.” left out
Previously reported pre-steady-state kinetic studies on PHD2 focused on its reaction with CODD HIF-1α 19-mer peptide ([38], [42]); there is no reported information on the rates of PHD2 reaction with O2 in the presence of NODD HIF-1α or HIF-2α substrates. To ascertain whether a slow reaction with O2 under pre-steady-state conditions is common to PHD2-catalyzed hydroxylation of both CODD and NODD, we investigated the reaction of PHD2 with NODD substrates in comparison with CODD for both HIF-1α and HIF-2α. Pre-steady-state reactions of PHD2 were initiated by rapid mixing of anaerobic PHD2·Fe(II)·2OG·HIF-α complexes with O2-saturated buffer at 5 °C. Reactions were initially observed using a photodiode array detector, and difference spectra (in comparison with the reaction with O2-free buffer) were subsequently analyzed.
FIGURE 5. Pre-steady-state kinetics of PHD2-catalyzed HIF-1/2α hydroxylation. […] B, stopped-flow kinetic traces at 520 nm showing absorbance changes in control experiments: Fe(II) only, mix of Fe(II) and 2OG, reaction of PHD2·Fe(II)·2OG complex with O2 in the absence of CODD; reaction of PHD2·Fe(II)·N-oxalylglycine (NOG)·CODD complex with O2. N-Oxalylglycine is an inhibitor of 2OG oxygenases. […] The kinetic traces represent the average of triplicate assays. E, HIF-1/2α peptide hydroxylation, as determined by MALDI-TOF-MS. Reactions were quenched with 1% CF3CO2H at defined time points.

[4] = FIH with the named substrate, 0.1–5 μM FIH, 2OG varied, 50 mM HEPES pH 7.5, 37 °C, MALDI-TOF-MS (LC-MS for 2CA, 3CA), triplicate assays, read-out: Km^app(2OG)
[5] = FIH, 0.1–5 μM FIH, substrate varied, 2OG fixed, 50 mM HEPES pH 7.5, 37 °C, MALDI-TOF-MS (LC-MS for 2CA, 3CA), triplicate assays, read-out: Km^app(peptide)

T1 sequence (Q9NWT6 whole entry): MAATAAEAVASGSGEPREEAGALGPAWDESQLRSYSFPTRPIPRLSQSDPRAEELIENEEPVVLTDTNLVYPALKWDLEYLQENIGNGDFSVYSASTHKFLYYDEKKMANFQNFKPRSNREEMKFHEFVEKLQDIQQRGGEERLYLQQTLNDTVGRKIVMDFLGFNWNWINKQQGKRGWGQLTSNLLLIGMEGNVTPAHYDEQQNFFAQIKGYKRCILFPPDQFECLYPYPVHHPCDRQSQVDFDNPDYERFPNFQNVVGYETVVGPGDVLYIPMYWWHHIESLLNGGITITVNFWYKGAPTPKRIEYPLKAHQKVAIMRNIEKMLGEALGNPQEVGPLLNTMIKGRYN
T2 sequence (Q9GZT9 181-426): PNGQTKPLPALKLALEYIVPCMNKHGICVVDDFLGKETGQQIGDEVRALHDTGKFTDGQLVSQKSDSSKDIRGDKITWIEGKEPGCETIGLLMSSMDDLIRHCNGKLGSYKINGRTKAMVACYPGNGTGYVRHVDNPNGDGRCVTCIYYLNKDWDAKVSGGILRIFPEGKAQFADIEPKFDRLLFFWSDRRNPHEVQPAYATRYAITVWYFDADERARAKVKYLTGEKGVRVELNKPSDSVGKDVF

Row | Sequence | Km [1, 4] [µM] | kcat^app ([1]; FIH, 50 mM HEPES pH 7.5, 37 °C) [s⁻¹] | Km [1, 5] [µM] | Stopped-flow, 500 nm (FIH) kfall phase [2] [s⁻¹] | Stopped-flow, 500 nm (FIH) krise phase [2] | Km ([1]; 5 μM FIH, peptide 500-1000 µM fixed, 2OG varied, Figure S3B, read-out: Km^app(2OG), fitting with a substrate inhibition model) [µM] | 2OG concentration above which substrate inhibition was observed [1] [µM] | Stopped-flow, 520 nm (PHD2) krise phase [3] [s⁻¹] | Stopped-flow, 520 nm (PHD2) kfall phase ([3]; listed as NODD HIF-2α) | Stopped-flow, 520 nm (PHD2) kfall phase [3] [s⁻¹]
1 | AAGYNNLEVAEYLLEHGADVNAQDKGGLIPLHNAA [tnkrs-1_35-mer, 35-mer fragment of tankyrase-1, ARD substrate of FIH] | 61 ± 7 | 3.0 ± 0.2 | 14 ± 4 | 14.8 ± 0.2 | 0.27 ± 0.03 s⁻¹ |  |  |  |  | 
2 | DESGLPQLTSYDCEVNAPIQGSRNLLQGEELLRAL [HIF-1α CAD35-mer] | 110 ± 20 | 0.56 ± 0.04 | 180 ± 30 | 4.5 ± 0.3 | 0.009 ± 0.005 s⁻¹ | 300 ± 100 | > 100 |  |  | 
3 | EELAQLAPTPGDAIISLDF [HIF-2α NODD, 19-mer fragment (398–416) of the HIF-2α N-terminal oxygen-dependent degradation domain, PHD2 substrate] |  |  |  |  |  |  |  | 0.003 ± 0.001 | 0.195 ± 0.003 s⁻¹ and 0.195 ± 0.009 s⁻¹ | 
4 | ELDLETLAPYIPMDGEDFQ [HIF-2α CODD, 19-mer fragment (523–541) of the HIF-2α C-terminal oxygen-dependent degradation domain, PHD2 substrate] |  |  |  |  |  |  |  | 0.027 ± 0.001 |  | 0.450 ± 0.010
5 | ESYLLPELTRYDCEVNVPVLGSSTLLQGGDLLRAL [HIF-2α CAD35-mer] | 19 ± 6 | 0.049 ± 0.005 | 315 ± 40 | 4.9 ± 0.2 | 0.017 ± 0.01 s⁻¹ |  | > 700 |  |  | 
6 | GSHMGSDLGKKLLEAARAGQDDEVRILMANGADVAAKDKNGSTPLHLAARNGHLEVVKLLLEAGADVNAQDKFGKTAFDISIDNGNEDLAEILQ [3CA, recombinant three-consensus ankyrin repeat protein produced in Escherichia coli] | 200 ± 60 | 0.6 ± 0.2 | 60 ± 15 | 10.5 ± 0.1 | 1.7 s⁻¹ and 1.7 ± 0.3 s⁻¹ |  |  |  |  | 
7 | HLEVVKLLLEAGADVNAQDK [1CA20-mer] | 290 ± 50 | 1.6 ± 0.1 | 25 ± 7 | 17.6 ± 0.1 | 0.4 ± 0.1 s⁻¹ |  |  |  |  | 
8 | SDKNGSTPLHLAARNGHLEVVKLLLEHGADVNAQDKWGKTAFDISIDNGNEDLAEILQ [2CA, recombinant two-consensus ankyrin repeat protein produced in Escherichia coli] | 110 ± 30 | 1.7 ± 0.2 | 16 ± 3 | 11.9 ± 0.2 | 0.6 ± 0.1 s⁻¹ |  |  |  |  | 

Source: publication PMC4528135, “Kinetic Investigations of the Role of Factor Inhibiting Hypoxia-inducible Factor (FIH) as an Oxygen Sensor” (The Journal of Biological Chemistry, 2015)
